Test results reported in patent US3956291A, “7-Thioacetamido cephalosporanic acid derivatives” (American Home Products Corporation, priority 1974, dated 1976).
Values after ≈ are worked out from the molar mass of the structure shown. Read-outs that look alike come from different tables or passages of the source.

Tests used:
Experiment in all cases: agar serial dilution test, minimum inhibitory concentration
Assay type in all cases: cell-based
escherichia coli = test system: escherichia coli
Excerpt: (§1) The compounds of this invention are useful for the treatment of bacterial infections amenable to treatment by cephalosporins. […] In accordance with the results obtained with the antibacterial compounds of this invention, their usefulness is established in the fields of comparative pharmacology and microbiology for the purpose of inhibiting the growth of undesirable bacterial colonies. […]

bacillus subtilis = details: BA SU strain 6633; for MIC: Bacillus subtilis
Excerpt: as §1

salmonella paratyphi = details: Salmonella enterica, read-out: Minimum Inhibitory Concentration
Excerpt: as §1

neisseria catarrhalis = test system: neisseria catarrhalis
Excerpt: as §1

Staphylococcus aureus = details: for MIC: Staphylococcus aureus
Excerpt: as §1

proteus vulgaris = test system: proteus vulgaris
Excerpt: as §1

klebsiella pneumoniae = test system: klebsiella pneumoniae
Excerpt: as §1

bordetella brochiseptica = details: BO BR strain 4617
Excerpt: as §1

herellea species = details: HE SP strain 9955
Excerpt: The compounds of this invention are useful for the treatment of bacterial infections amenable to treatment by cephalosporins. […] In accordance with the results obtained with the antibacterial compounds of this invention, their usefulness is established in the fields of comparative pharmacology and microbiology for the purpose of inhibiting the growth of undesirable bacterial colonies.
The nmr spectra described in the following examples pertains to the spectra obtained upon exchanging acidic hydrogens with deuterium and are described in ppm (δ). The small amount of water and/or solvent carried into the products is readily removed by gently heating the material under vacuum. […]

[1] = NE CA strain 8193, read-out: Minimum Inhibitory Concentration
[2] = PR VU strain 6896, read-out: Minimum Inhibitory Concentration
[3] = KL PN strain 10031, read-out: Minimum Inhibitory Concentration
[4] = read-out: Minimum Inhibitory Concentration

SMILES	MIC (escherichia coli; ES CO strain 9637) [µg/mL]	MIC (bacillus subtilis) [µg/mL]	MIC (salmonella paratyphi) [µg/mL]	MIC (neisseria catarrhalis; [1]) [µg/mL]	MIC (Staphylococcus aureus; ST AU strain 53-180) [µg/mL]	MIC (Staphylococcus aureus; ST AU strain 6538P) [µg/mL]	MIC (Staphylococcus aureus; ST AU strain CHP) [µg/mL]	MIC (Staphylococcus aureus; ST AU strain Smith) [µg/mL]	MIC (proteus vulgaris; [2]) [µg/mL]	MIC (klebsiella pneumoniae; [3]) [µg/mL]	MIC (bordetella brochiseptica) [µg/mL]	MIC (neisseria catarrhalis; [4]) [µg/mL]	MIC (proteus vulgaris; [4]) [µg/mL]	MIC (escherichia coli; ES CO strain 920) [µg/mL]	MIC (Staphylococcus aureus; ST AU (ditto mark) strain 9637 (so in the source)) [µg/mL]	MIC (herellea species) [µg/mL]	MIC (klebsiella pneumoniae; [4]) [µg/mL]	Minimum Inhibitory Concentration (bacillus subtilis) [micrograms per milliliter]	Minimum Inhibitory Concentration (Staphylococcus aureus; ST AU strain 6538P) [micrograms per milliliter]	Minimum Inhibitory Concentration (Staphylococcus aureus; ST AU strain Smith) [micrograms per milliliter]
CCOC(=O)CSC(SCC(=O)N[C@@H]1C(=O)N2C(C(=O)O)=C(COC(C)=O)CS[C@H]12)=C(C#N)C(N)=O [Example 4]	250 (≈ 448 µM)	0.061 (≈ 0.109 µM)	62.5 (≈ 112 µM)	3.9 (≈ 6.98 µM)	1.95 (≈ 3.49 µM)	0.488 (≈ 0.874 µM)	3.9 (≈ 6.98 µM)	0.488 (≈ 0.874 µM)	125 (≈ 224 µM)	125 (≈ 224 µM)										
CC(=O)OCC1=C(C(=O)O)N2C(=O)[C@@H](NC(=O)CSC(=C[N+](=O)[O-])SCc3ccccc3)[C@H]2SC1 [Example 9, 7-[2-(1-Benzylthio-2-nitroethenylthio)acetamido]cephalosporanic acid]	250 (≈ 463 µM)	0.031 (≈ 0.0574 µM)	62.5 (≈ 116 µM)	7.81 (≈ 14.5 µM)	0.488 (≈ 0.904 µM)	0.122 (≈ 0.226 µM)	0.488 (≈ 0.904 µM)	0.122 (≈ 0.226 µM)	125 (≈ 232 µM)	125 (≈ 232 µM)	250 (≈ 463 µM)									
CCOC(=O)CSC(SCC(=O)N[C@@H]1C(=O)N2C(C(=O)O)=C(COC(C)=O)CS[C@H]12)=C(C#N)C#N [Example 1, 7-(2[2,2-Dicyano-1-(ethoxycarbonylmethylthio)ethenylthio]acetamido)cephalosporanic acid]	250 (≈ 462 µM)	0.244 (≈ 0.451 µM)	125 (≈ 231 µM)		3.9 (≈ 7.21 µM)	0.976 (≈ 1.81 µM)	7.81 (≈ 14.4 µM)	0.976 (≈ 1.81 µM)		250 (≈ 462 µM)	250 (≈ 462 µM)	125 (≈ 231 µM)	125 (≈ 231 µM)							
CSC(=NC#N)SCC(=O)N[C@@H]1C(=O)N2C(C(=O)O)=C(COC(C)=O)CS[C@H]12 [Example 5]		0.976 (≈ 2.2 µM)	31.3 (≈ 70.4 µM)	250 (≈ 562 µM)	3.9 (≈ 8.77 µM)	1.95 (≈ 4.39 µM)	7.81 (≈ 17.6 µM)	0.976 (≈ 2.2 µM)	62.5 (≈ 141 µM)	125 (≈ 281 µM)	125 (≈ 281 µM)			250 (≈ 562 µM)	125 (≈ 281 µM)					
CC(=O)OCC1=C(C(=O)O)N2C(=O)[C@@H](NC(=O)CSC(=NC#N)SCc3ccc(Cl)cc3)[C@H]2SC1 [Example 18, 7-[2-[(4-Chlorophenylmethylthio) (cyanoimino)methylthio]acetamido]cephalosporanic acid]	250 (≈ 450 µM)	0.488 (≈ 0.879 µM)	31.3 (≈ 56.4 µM)	250 (≈ 450 µM)	3.9 (≈ 7.03 µM)	1.95 (≈ 3.51 µM)	7.81 (≈ 14.1 µM)	1.95 (≈ 3.51 µM)	62.5 (≈ 113 µM)	125 (≈ 225 µM)	125 (≈ 225 µM)			250 (≈ 450 µM)						
CC(=O)OCC1=C(C(=O)O)N2C(=O)[C@@H](NC(=O)CSC(=NC#N)SCc3cccc(Cl)c3)[C@H]2SC1 [Example 16, 7-[2-[(3-chlorophenylmethylthio) (cyanoimino)methylthio]acetamido]cephalosporanic acid]	250 (≈ 450 µM)	0.122 (≈ 0.22 µM)	31.3 (≈ 56.4 µM)	125 (≈ 225 µM)	3.9 (≈ 7.03 µM)	0.976 (≈ 1.76 µM)	1.95 (≈ 3.51 µM)	1.95 (≈ 3.51 µM)	125 (≈ 225 µM)	125 (≈ 225 µM)	250 (≈ 450 µM)			250 (≈ 450 µM)						
CC(=O)OCC1=C(C(=O)O)N2C(=O)[C@@H](NC(=O)CSC(SCC#N)=C(C#N)C#N)[C@H]2SC1 [Example 2, 7-(2-[2,2-Dicyano-1-(cyanomethylthio)ethenylthio]acetamido)cephalosporanic acid]	31.3 (≈ 63.4 µM)	0.061 (≈ 0.124 µM)	15.6 (≈ 31.6 µM)		1.95 (≈ 3.95 µM)	0.488 (≈ 0.989 µM)	1.95 (≈ 3.95 µM)	0.488 (≈ 0.989 µM)	31.3 (≈ 63.4 µM)		62.5 (≈ 127 µM)	15.6 (≈ 31.6 µM)		250 (≈ 507 µM)		250 (≈ 507 µM)	15.6 (≈ 31.6 µM)			
CC(=O)OCC1=C(C(=O)O)N2C(=O)C(NC(=O)CSC(SCC#N)=C(C#N)S(C)(=O)=O)C2SC1 (stereo not drawn) [Example 11, 7-[2-(2-Cyano-1-cyanomethylthio-2-methylsulfonylethenylthio)acetamido]cephalosporanic acid]																		15.6	250	250
